Laboratory results as given in patent US5767068A, “Pure biologically active colistin, its components and a colistin formulation for treatment of pulmonary infections” (Pathogenesis Corporation, priority 1997, dated 1998).

Tests used:
Pseudomonas aeruginosa [1] = details: cited from earlier work
Pseudomonas aeruginosa [2] = assay: Time kill kinetic study of bactericidal activity; type: cell-based
Method: Comparison of anti-Pseudomonas aeruginosa activities of colimycin and colistin hydrochloride was performed using time kill kinetic studies as described in Antimicrobial Susceptibility Testing, Section 5.16.: Tests to assess bactericidal activity, Clinical Microbiology Procedure Handbook, Ed. Henry D. Isenberg, ASM, Washington, DC (1992). The exact procedure is described in Example 14.
Briefly, tests were similar to those used for determining MICs, except that the final test volume was larger (10 mL) to allow sampling at various time points. Parenteral colimycin was freshly diluted immediately before testing. Cultures were incubated at 37° C. At initial set-up and at various time-points, cultures were plated, with or without further dilution, onto sheep blood agar plates. Plates were incubated for 18-24 hours, and the number of CFU/mL was determined and plotted to determine the percentage of surviving organisms and the time required to achieve 99.9% killing. Results are seen in FIG. 15.
In this study, Pseudomonas aeruginosa organisms were exposed to varying concentrations of colistin or colimycin as indicated in FIG. 15. Concentrations of colimycin were between 8-64 μg/ml. Concentrations of colistin component IV hydrochloride were 0.25 and 0.5 μg/ml, that is 32-256 (for 0.25 μg/ml) and 16-128 (for 0.5 μg/ml) times lower that concentrations of colimycin. Colony-forming unit (CFU) per ml were determined and plotted against drug exposure time in hours.
Time kill kinetic studies were performed as described in (Antimicrobial Susceptibility Testing, Section 5.16. Tests to assess bactericidal activity, in Clinical Microbiology Procedure Handbook (supra).
Tests were set in the same way used for determining MICs (Example 13), except that the final test volume was larger (10 mL) to allow sampling at various time points. Cultures were incubated at 37° C. At initial set-up and at various desired time-points, cultures were sampled and plated (with or without further dilution) onto sheep blood agar plates. Plates were incubated for 18-24 hours, and the number of CFU/mL was determined and plotted to determine the percentage of surviving organisms and the time required to achieve 99.9% killing.

[3] = pH of freshly dissolved colimycin solutions over time; type: physicochemical; details: 10.0, 15.0 and 20.0 mg/ml in water, all cases
Method: Acidic stability of the colimycin solution was determined according to Example 11. Briefly, colimycin (405 mg) was freshly dissolved in water to achieve 10.0 mg/ml, 15.0 mg/ml, and 20.0 mg/ml solutions. These values correspond to concentrations of 3.7 mg/ml, 5.6 mg/ml and 7.4 mg/ml colistin base equivalent. Solution pH was monitored continuously at various times from 1 minute to 180 minutes and pH values and times were recorded.
The pH of freshly dissolved colimycin was determined by weighing a freshly opened vial of Coly-Mycin M Parenteral, Parke-Davis, lot# 01966P, containing 405 mg into 20 ml glass screwcap scintillation vials and adding an appropriate volume of sterile irrigation water to achieve 10.0 mg/ml, 15.0 mg/ml, and 20.0 mg/ml solutions. These values correspond to concentrations of 3.7 mg/ml, 5.6 mg/ml and 7.4 mg/ml colistin base equivalent. Solution pH was then monitored continuously using a Beckman Phi-10 pH meter fitted with a Beckman Futura Plus combination electrode calibrated at pH 4.0 and 7.0 as per manufacturer's instructions prior to use. At various times from 1 minute to 180 minutes, pH values and times were recorded.

[4] = Jet nebulization (Pari LC Jet) with laser diffraction aerosol characterization; type: physicochemical; details: Pari LC Jet nebulizer, n=3
Method: Colimycin was freshly dissolved in 37.5 mM NaCl at a concentration of 20 mg/ml colistin base equivalent immediately prior to nebulization. Colistin component IV sulfate was dissolved in 120 mM sodium chloride, and the pH was adjusted to 7.0 with 1 molar sodium hydroxide.
Four ml of solution to be nebulized was placed in a Pari LC Jet nebulizer fitted with a Pulmonaide Compressor (DeVilbiss Model 5650D) with an air flow rate of 4-6 liters/minute. Aerosols generated are characterized by passing through a laser diffraction particle analyzer (Malvern Mastersizer X). Each formulation was analyzed multiple times to determine reproducibility of results, which were expressed as total obscuration time, mass median average diameter, and respirable fraction.
In order to characterize colistin aerosols, and to investigate differences between the colimycin and colistin aerosol formulations, comparisons of the aerosolization of 150 mM (isotonic) NaCl alone, 20 mg/ml colistin component IV sulfate in 120 mM or 20 mg/ml colimycin in […] NaCl were made. Results are shown in FIG. 18, which is a comparison of the times required for aerosolization of 4 mL of the three solutions. The two drug solutions were analyzed three times, and saline was analyzed four times. Bars show standard deviations of measurements.
Colimycin was freshly dissolved in 37.5 mM […] NaCl at a concentration of 20 mg (colistin base equivalents)/ml solution immediately prior to nebulization. […]
Four ml of solution to be nebulized was placed in a Pari LC Jet nebulizer fitted with a Pulmonaide Compressor, DeVilbiss Model 5650D, with an air flow rate of 4-6 liters/minute. […] Each formulation was analyzed multiple times to determine reproducibility of results, which were expressed as total obscuration time, mass median particle diameter, and respirable fraction.
Mass median particle diameters were expressed as average ±standard deviation (n) for aerosols.
Average respirable fractions were calculated as average percentage of particles ranging from 1 micron to 6 microns in diameter within the aerosol over time.

[5] = 2,000,000 units nebulized; cited from earlier work
[6] = systemic intravenous, acute pulmonary exacerbation; cited from earlier work
[7] = in situ in the recipient patient body; cited from earlier work
[8] = 20 mg/ml, average±standard deviation

| Compound | strains of Pseudomonas aeruginosa sensitive to treatment (Pseudomonas aeruginosa [1]) | eradication of Pseudomonas aeruginosa organism (Pseudomonas aeruginosa [2]; 8 μg/mL, 4 hours of testing) | killing of test organism (Pseudomonas aeruginosa [2]; 16 μg/mL, at 3 hours) | time at which over 5 logs killing was shown (Pseudomonas aeruginosa [2]; 64 μg/mL) | concentration required for similar level of killing (over 5 logs within 2 hours) (Pseudomonas aeruginosa [2]; freshly dissolved) | pH of solution within 3 minutes [3] | average respirable fraction (particles from 1 micron to 6 microns) [4, 8] | mass median particle diameter of the aerosol [4, 8] | aerosolization time ([4]; 4 mL of 20 mg/ml solution, mean) | patients reporting chest tightness (bronchoconstriction response) [5] | cases with nephrotoxicity symptoms [6] | cases with neurotoxicity symptoms [6] | drug converted to colistin in an hour [7] |
| --- | --- | --- | --- | --- | --- | --- | --- | --- | --- | --- | --- | --- | --- |
| NC[C@H]1O[C@H](O[C@H]2[C@H](O)[C@@H](O[C@H]3O[C@H](CO)[C@@H](O)[C@H](N)[C@H]3O)[C@H](N)C[C@@H]2N)[C@H](N)C[C@@H]1O [tobramycin] | about 90% |  |  |  |  |  |  |  |  |  |  |  |  |
| colimycin |  | did not, even at 4 hours of testing, eradicate | over 5 logs | 1.5 hours | 32 μg/ml | > 7.5 | 58.77±2.03 percentage | 4.11±0.29 microns | 10.53 min | approximately 65% | about 5% | about 29% | ~3% |
